# Laboratory results from ChEMBL document CHEMBL5042496, “An unanticipated discovery towards novel naphthalimide corbelled aminothiazoximes as potential anti-MRSA agents and allosteric modulators for PBP2a” (Eur J Med Chem, 2022).
# Activity calls are given as the source filed them. No cut-off for these calls is given here.
# How the values were obtained:
# Cell membrane [1] = test: Induction of inner membrane permeabilization in methicillin-resistant Staphylococcus aureus at 1 time MIC measured for 1 hr by PI dye-based fluorescence assay; conditions: TDE = time-dependent effect
# Escherichia coli [2] = test: Antibacterial activity against Escherichia coli assessed as bacterial growth inhibition measured after 24 hrs by two fold serial dilution technique; type: functional
# Staphylococcus aureus [3] = test: Antibacterial activity against methicillin-resistant Staphylococcus aureus assessed as bacterial growth inhibition measured after 24 hrs by two fold serial dilution technique; type: functional
# Pseudomonas aeruginosa [4] = test: Antibacterial activity against Pseudomonas aeruginosa ATCC 27853 assessed as bacterial growth inhibition measured after 24 hrs by two fold serial dilution technique; type: functional
# Klebsiella pneumoniae = test: Antibacterial activity against Klebsiella pneumoniae assessed as bacterial growth inhibition measured after 24 hrs by two fold serial dilution technique; type: functional
# Staphylococcus = test: Binding affinity to Staphylococcus aureus PBP2a measured after 6 hrs by ELISA; conditions: filed as positive allosteric modulator
# Staphylococcus aureus [5] = test: Antibacterial activity against Staphylococcus aureus assessed as bacterial growth inhibition measured after 24 hrs by two fold serial dilution technique; type: functional
# Staphylococcus aureus [6] = test: Antibacterial activity against methicillin-resistant Staphylococcus aureus assessed as pitted cell structures at 1 time MIC incubated for 8 hrs by SEM analysis; type: functional, organism-based
# [7] = Hemolytic activity in human RBC assessed as hemolysis incubated for 1 hr; type: toxicity, cell-based, Erythrocyte; conditions: red blood cells
# Staphylococcus aureus [8] = test: Antibacterial activity against methicillin-resistant Staphylococcus aureus assessed as respiratory pathway inactivation by measuring decrease in LDH activity at MIC incubated for 6 hrs by LDH assay; type: functional; set-up: scale not given: the % may be the effect or the level left
# [9] = molecular target: T1, MecA (Staphylococcus aureus) (UniProt Q7DHH4); test: Binding affinity to Staphylococcus aureus PBP2a measured after 6 hrs by ELISA in the presence of Ceftizoxime; conditions: filed as positive allosteric modulator
# T1 sequence (whole entry): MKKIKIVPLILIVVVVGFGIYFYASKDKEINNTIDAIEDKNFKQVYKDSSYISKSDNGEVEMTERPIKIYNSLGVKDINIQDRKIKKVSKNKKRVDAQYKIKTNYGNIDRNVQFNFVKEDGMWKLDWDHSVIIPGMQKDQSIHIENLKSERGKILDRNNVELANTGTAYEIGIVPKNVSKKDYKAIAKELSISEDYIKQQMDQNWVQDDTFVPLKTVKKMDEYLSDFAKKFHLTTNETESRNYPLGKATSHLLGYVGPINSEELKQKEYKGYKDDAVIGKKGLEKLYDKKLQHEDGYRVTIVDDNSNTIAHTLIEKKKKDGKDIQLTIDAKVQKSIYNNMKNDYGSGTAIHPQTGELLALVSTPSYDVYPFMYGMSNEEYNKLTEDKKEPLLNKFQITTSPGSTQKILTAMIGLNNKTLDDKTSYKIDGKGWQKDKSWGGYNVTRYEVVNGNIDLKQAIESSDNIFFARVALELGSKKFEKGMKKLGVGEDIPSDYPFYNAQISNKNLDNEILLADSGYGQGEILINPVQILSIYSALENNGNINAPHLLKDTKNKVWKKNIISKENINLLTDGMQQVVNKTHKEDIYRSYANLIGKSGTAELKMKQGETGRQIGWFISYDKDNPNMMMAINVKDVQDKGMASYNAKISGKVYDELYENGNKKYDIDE
# Enterococcus faecium = test: Antibacterial activity against Enterococcus faecium assessed as bacterial growth inhibition measured after 24 hrs by two fold serial dilution technique; type: functional
# Staphylococcus aureus [10] = test: Antibacterial activity against methicillin-resistant Staphylococcus aureus assessed as disrupted cell shapes at 1 time MIC incubated for 8 hrs by SEM analysis; type: functional, organism-based
# Acinetobacter baumannii = test: Antibacterial activity against Acinetobacter baumannii assessed as bacterial growth inhibition measured after 24 hrs by two fold serial dilution technique; type: functional
# DNA [11] = test: Binding affinity to DNA (unknown origin) assessed as decrease in maximum absorption peak at 410nm at 3 10^-5 mol/L by UV spectrophotometric analysis; type: functional; conditions: Homo sapiens
# Cell membrane [12] = test: Induction of cell membrane disruption in methicillin-resistant Staphylococcus aureus assessed as increase in protein leakage measured after 6 hrs by Bradford assay
# Staphylococcus aureus [13] = test: Antibacterial activity against methicillin-resistant Staphylococcus aureus assessed as shriveled cell structures at 1 time MIC incubated for 8 hrs by SEM analysis; type: functional, organism-based
# DNA [14] = test: Binding affinity to DNA (unknown origin) assessed as decrease in fluorescence intensity at 5 10^-5 mol/L by acridine orange staining based fluorescence microscopic analysis; type: functional; conditions: Homo sapiens
# Escherichia coli [15] = test: Antibacterial activity against Escherichia coli ATCC 25922 assessed as bacterial growth inhibition measured after 24 hrs by two fold serial dilution technique; type: functional
# Staphylococcus aureus [16] = test: Antibacterial activity against Staphylococcus aureus ATCC 25923 assessed as bacterial growth inhibition measured after 24 hrs by two fold serial dilution technique; type: functional
# Staphylococcus aureus [17] = test: Antibacterial activity against methicillin-resistant Staphylococcus aureus assessed as inhibition of bacterial growth at 2 time MIC measured after 2 hrs; type: functional, organism-based
# Staphylococcus aureus [18] = test: Antibacterial activity against methicillin-resistant Staphylococcus aureus assessed as respiratory pathway inactivation by measuring decrease in LDH activity measured after 6 hrs by LDH assay; type: functional, organism-based
# Staphylococcus aureus [19] = test: Antibacterial activity against methicillin-resistant Staphylococcus aureus assessed as inhibition of bacterial growth at 0.5 time MIC measured after 2 hrs; type: functional, organism-based
# Cell membrane [20] = test: Induction of inner membrane permeabilization in methicillin-resistant Staphylococcus aureus at 2 times MIC measured for 1 hr by PI dye-based fluorescence assay; conditions: TDE = time-dependent effect
# Staphylococcus aureus [21] = test: Induction of ROS generation in methicillin-resistant Staphylococcus aureus after 6 hrs by DCFH-DA staining based fluorescence assay; type: functional, organism-based
# DNA [22] = test: Binding affinity to DNA (unknown origin) assessed as hypochromicity at 0.2 to 0.8 10^-5 mol/L by UV spectrophotometric analysis; type: functional; conditions: Homo sapiens; dose 0.2-0.8 10^-5mol/L
# L929 = test: Cytotoxicity against mouse L929 cells assessed as reduction in cell viability at 0.39 to 100 ug/ml incubated for 24 hrs by MTT assay; type: toxicity, cell-based; conditions: l929, 24 h, dose 0.39-100 µg/ml
# Homo sapiens = organism: Homo sapiens; test: Binding affinity to lipase (unknown origin) assessed as decrease in fluorescence intensity measured after 5 mins by fluorescence spectrofluorometric analysis
# Pseudomonas aeruginosa [23] = test: Antibacterial activity against Pseudomonas aeruginosa assessed as bacterial growth inhibition measured after 24 hrs by two fold serial dilution technique; type: functional
# [24] = molecular target: T1, MecA (Staphylococcus aureus); test: Binding affinity to Staphylococcus aureus PBP2a measured after 6 hrs by ELISA in the presence of Norfloxacin; conditions: filed as positive allosteric modulator
# Staphylococcus aureus [25] = test: Antibacterial activity against methicillin-resistant Staphylococcus aureus assessed as inhibition of bacterial growth at 1 time MIC measured after 2 hrs; type: functional, organism-based
# Staphylococcus aureus [26] = test: Antibacterial activity against methicillin resistant Staphylococcus aureus treated over 16 serial passages measured after 24 hrs by resistance development assay; type: functional, organism-based
# Cell membrane [27] = test: Induction of membrane depolarization in methicillin-resistant Staphylococcus aureus at MIC measured upto 1 hr by DiSC35 dye-based fluorescence assay; conditions: time hrs <=1, TDE = time-dependent effect
# Staphylococcus aureus [28] = test: Antibacterial activity against Staphylococcus aureus ATCC 29213 assessed as bacterial growth inhibition measured after 24 hrs by two fold serial dilution technique; type: functional
structure (smiles),measurement,setting,value
CO/N=C(\C(=O)N1CCN(c2ccc3c4c(cccc24)C(=O)N(CCN(C)C)C3=O)CC1)c1csc(N)n1,Activity,Cell membrane [1],Tde
same,MIC,Escherichia coli [2],2 mg/L
same,MIC,Staphylococcus aureus [3],0.5 mg/L
same,MIC,Pseudomonas aeruginosa [4],8 mg/L
same,MIC,Klebsiella pneumoniae,4 mg/L
same,Activity,Staphylococcus,4.58 µg/mL
same,MIC,Staphylococcus aureus [5],16 mg/L
same,Activity,Staphylococcus aureus [6],Active
same,HC50 at 1 h,[7],205 µg/mL
same,Activity,Staphylococcus aureus [8],45%
same,Activity,[9],1.29 ng/mL
same,MIC,Enterococcus faecium,4 mg/L
same,Activity,Staphylococcus aureus [10],Active
same,MIC,Acinetobacter baumannii,16 mg/L
same,Activity,DNA [11],Active
same,Activity,Cell membrane [12],Dose-Dependent Effect
same,Activity,Staphylococcus aureus [13],Active
same,Activity,DNA [14],Active
same,MIC,Escherichia coli [15],16 mg/L
same,MIC,Staphylococcus aureus [16],8 mg/L
same,Activity,Staphylococcus aureus [17],Active
same,Activity,Staphylococcus aureus [18],Dose-Dependent Effect
same,Activity,Staphylococcus aureus [19],Active
same,Activity,Cell membrane [20],Tde
same,Activity,Staphylococcus aureus [21],Dose-Dependent Effect
same,Activity,DNA [22],Active
same,Activity,L929,Non-Toxic
same,Activity,Homo sapiens,Active
same,MIC,Pseudomonas aeruginosa [23],16 mg/L
same,Activity,[24],4.96 ng/mL
same,Activity,Staphylococcus aureus [25],Active
same,Activity,Staphylococcus aureus [26],Active
same,Activity,Cell membrane [27],Tde
same,MIC,Staphylococcus aureus [28],4 mg/L
